Common to all, as to test: relative viability (nuclei count vs DMSO), 5 days (fraction); higher = more cells survive
Compound in the experiment “Dabrafenib + Decitabine”: CC(C)(C)c1nc(-c2cccc(NS(=O)(=O)c3c(F)cccc3F)c2F)c(-c2ccnc(N)n2)s1 [Dabrafenib] + Nc1ncn([C@H]2C[C@H](O)[C@@H](CO)O2)c(=O)n1 [Decitabine] (partner 2 µM)
In outline:
(§1)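 Cells from lung cancer lines were seeded into 1536-well plates and, one day later, dosed by pin tool. Treatments were either a single drug or a fixed dose of an anchor drug with five library-drug doses (not always all listed) in √10 steps. After 5 days, nuclei were stained in a one-step fixation (final 0.05% Triton X-100, 1% formaldehyde, 1 ug/ml Hoechst) and counted on 4× images, and relative viability is the treated-to-vehicle nuclei ratio, as the median of duplicate plates.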

Compound in the experiment “VX-702 + Linsitinib”: NC(=O)c1ccc(N(C(N)=O)c2c(F)cccc2F)nc1-c1ccc(F)cc1F [VX-702] + C[C@]1(O)C[C@@H](c2nc(-c3ccc4ccc(-c5ccccc5)nc4c3)c3c(N)nccn32)C1 [Linsitinib] (partner 1 µM)
The essentials:
as §1

Compound in the experiment “Dabrafenib + Phenformin”: CC(C)(C)c1nc(-c2cccc(NS(=O)(=O)c3c(F)cccc3F)c2F)c(-c2ccnc(N)n2)s1 [Dabrafenib] + N=C(N)NC(=N)NCCc1ccccc1 [Phenformin] (partner 250 µM)
In outline: as §1

Compound in the experiment “Dabrafenib + Luminespib”: CC(C)(C)c1nc(-c2cccc(NS(=O)(=O)c3c(F)cccc3F)c2F)c(-c2ccnc(N)n2)s1 [Dabrafenib] + CCNC(=O)c1noc(-c2cc(C(C)C)c(O)cc2O)c1-c1ccc(CN2CCOCC2)cc1 [Luminespib] (partner 0.01 µM)
The essentials:
as §1

On to NCI-H1792, for which the relative viability was determined as 0.651 with Dabrafenib + Decitabine (first compound 0.009487 µM); 0.557 with Dabrafenib + Decitabine (first compound 0.03 µM); 0.566 with Dabrafenib + Decitabine (first compound 0.09487 µM); 0.287 in the experiment with Dabrafenib + Decitabine (first compound 0.3 µM); 0.404 with VX-702 + Linsitinib (first compound 0.02 µM); 0.484 in the experiment with VX-702 + Linsitinib (first compound 0.2 µM). The relative viability in the experiment with VX-702 + Linsitinib (first compound 0.6325 µM) amounted to 0.458; with VX-702 + Linsitinib (first compound 2 µM), 0.5; with Dabrafenib + Phenformin (first compound 0.009487 µM), 0.485; with Dabrafenib + Phenformin (first compound 0.03 µM), 0.198; with Dabrafenib + Phenformin (first compound 0.09487 µM), 0.34; in the experiment with Dabrafenib + Phenformin (first compound 0.3 µM) it was 0.202. The relative viability in the experiment with Dabrafenib + Luminespib (first compound 0.009487 µM) worked out at 0.474; with Dabrafenib + Luminespib (first compound 0.03 µM), 0.412; in the experiment with Dabrafenib + Luminespib (first compound 0.09487 µM) it was 0.423; in the experiment with Dabrafenib + Luminespib (first compound 0.3 µM), 0.538.
Take NCI-H1793: the relative viability amounted to 0.531 with Dabrafenib + Decitabine (first compound 0.009487 µM); 0.521 in the experiment with Dabrafenib + Decitabine (first compound 0.09487 µM); 0.418 in the experiment with Dabrafenib + Decitabine (first compound 0.3 µM); 0.815 in the experiment with VX-702 + Linsitinib (first compound 0.02 µM); 0.73 with VX-702 + Linsitinib (first compound 0.2 µM); 0.687 with VX-702 + Linsitinib (first compound 0.6325 µM). In addition, the relative viability was 0.974 in the experiment with VX-702 + Linsitinib (first compound 2 µM); 0.398 in the experiment with Dabrafenib + Phenformin (first compound 0.009487 µM); 0.39 with Dabrafenib + Phenformin (first compound 0.3 µM); 0.231 in the experiment with Dabrafenib + Luminespib (first compound 0.009487 µM); 0.175 with Dabrafenib + Luminespib (first compound 0.3 µM).
For the cell line NCI-H1915, the relative viability amounted to 0.264 with Dabrafenib + Decitabine (first compound 0.003 µM); 0.262 with Dabrafenib + Decitabine (first compound 0.009487 µM); 0.256 with Dabrafenib + Decitabine (first compound 0.03 µM); 0.255 with Dabrafenib + Decitabine (first compound 0.09487 µM); 0.243 in the experiment with Dabrafenib + Decitabine (first compound 0.3 µM); 1.11 with VX-702 + Linsitinib (first compound 0.02 µM). Moreover, the relative viability was 1.14 with VX-702 + Linsitinib (first compound 0.2 µM); 1.08 with VX-702 + Linsitinib (first compound 0.6325 µM); 1.08 with VX-702 + Linsitinib (first compound 2 µM); 0.392 with Dabrafenib + Phenformin (first compound 0.003 µM); 0.402 with Dabrafenib + Phenformin (first compound 0.009487 µM); 0.266 with Dabrafenib + Phenformin (first compound 0.03 µM). Also, the relative viability in the experiment with Dabrafenib + Phenformin (first compound 0.09487 µM) stood at 0.29; in the experiment with Dabrafenib + Phenformin (first compound 0.3 µM), 0.272; with Dabrafenib + Luminespib (first compound 0.003 µM), 0.981; in the experiment with Dabrafenib + Luminespib (first compound 0.009487 µM), 0.706; with Dabrafenib + Luminespib (first compound 0.03 µM) it was 0.61; with Dabrafenib + Luminespib (first compound 0.09487 µM), 0.523. Further, the relative viability with Dabrafenib + Luminespib (first compound 0.3 µM) amounted to 0.62.
On to NCI-H1944, for which the relative viability with Dabrafenib + Decitabine (first compound 0.003 µM) was 0.45; in the experiment with Dabrafenib + Decitabine (first compound 0.009487 µM), 0.46; with Dabrafenib + Decitabine (first compound 0.03 µM), 0.436; in the experiment with Dabrafenib + Decitabine (first compound 0.09487 µM), 0.467; with Dabrafenib + Decitabine (first compound 0.3 µM), 0.364; with VX-702 + Linsitinib (first compound 0.02 µM), 1.07. The relative viability with VX-702 + Linsitinib (first compound 0.2 µM) turned out to be 1.06; with VX-702 + Linsitinib (first compound 0.6325 µM), 1.31; in the experiment with VX-702 + Linsitinib (first compound 2 µM), 0.903; with Dabrafenib + Phenformin (first compound 0.003 µM) it was 0.182; with Dabrafenib + Phenformin (first compound 0.009487 µM), 0.199; with Dabrafenib + Phenformin (first compound 0.03 µM), 0.188. Also, the relative viability in the experiment with Dabrafenib + Phenformin (first compound 0.09487 µM) turned out to be 0.222; with Dabrafenib + Phenformin (first compound 0.3 µM) it was 0.208; with Dabrafenib + Luminespib (first compound 0.003 µM) it was 0.707; with Dabrafenib + Luminespib (first compound 0.009487 µM), 0.839; with Dabrafenib + Luminespib (first compound 0.03 µM), 0.733; in the experiment with Dabrafenib + Luminespib (first compound 0.09487 µM), 0.682. The relative viability with Dabrafenib + Luminespib (first compound 0.3 µM) was found to be 0.717.
On to NCI-H1975, for which the relative viability with Dabrafenib + Decitabine (first compound 0.003 µM) came out at 0.373; with Dabrafenib + Decitabine (first compound 0.009487 µM), 0.413; with Dabrafenib + Decitabine (first compound 0.03 µM) it was 0.355; with Dabrafenib + Decitabine (first compound 0.09487 µM), 0.4; in the experiment with Dabrafenib + Decitabine (first compound 0.3 µM), 0.312; with VX-702 + Linsitinib (first compound 0.02 µM), 1.01. Further, the relative viability with VX-702 + Linsitinib (first compound 0.2 µM) worked out at 0.998; with VX-702 + Linsitinib (first compound 0.6325 µM), 0.887; with VX-702 + Linsitinib (first compound 2 µM), 1.17; with Dabrafenib + Phenformin (first compound 0.003 µM), 0.227; with Dabrafenib + Phenformin (first compound 0.009487 µM), 0.411; in the experiment with Dabrafenib + Phenformin (first compound 0.03 µM), 0.411. The relative viability in the experiment with Dabrafenib + Phenformin (first compound 0.09487 µM) came out at 0.356; with Dabrafenib + Phenformin (first compound 0.3 µM) it was 0.363; in the experiment with Dabrafenib + Luminespib (first compound 0.003 µM), 0.159; with Dabrafenib + Luminespib (first compound 0.009487 µM), 0.189; in the experiment with Dabrafenib + Luminespib (first compound 0.03 µM), 0.165; with Dabrafenib + Luminespib (first compound 0.09487 µM), 0.278. Further, the relative viability with Dabrafenib + Luminespib (first compound 0.3 µM) was 0.191.
NCI-H1993: the relative viability in the experiment with Dabrafenib + Decitabine (first compound 0.003 µM) is 0.564; in the experiment with Dabrafenib + Decitabine (first compound 0.009487 µM), 0.719; with Dabrafenib + Decitabine (first compound 0.03 µM) it was 0.538; with Dabrafenib + Decitabine (first compound 0.09487 µM), 0.68; with Dabrafenib + Decitabine (first compound 0.3 µM), 0.618; in the experiment with VX-702 + Linsitinib (first compound 0.02 µM), 0.712. Further, the relative viability with VX-702 + Linsitinib (first compound 0.2 µM) was 0.718; with VX-702 + Linsitinib (first compound 0.6325 µM), 0.745; with VX-702 + Linsitinib (first compound 2 µM), 0.8; with Dabrafenib + Phenformin (first compound 0.003 µM) it was 0.33; in the experiment with Dabrafenib + Phenformin (first compound 0.009487 µM), 0.536; with Dabrafenib + Phenformin (first compound 0.03 µM) it was 0.482. In addition, the relative viability was 0.446 in the experiment with Dabrafenib + Phenformin (first compound 0.09487 µM); 0.513 in the experiment with Dabrafenib + Phenformin (first compound 0.3 µM); 0.68 with Dabrafenib + Luminespib (first compound 0.003 µM); 0.984 with Dabrafenib + Luminespib (first compound 0.009487 µM); 0.812 in the experiment with Dabrafenib + Luminespib (first compound 0.03 µM); 0.828 with Dabrafenib + Luminespib (first compound 0.09487 µM). Also, the relative viability with Dabrafenib + Luminespib (first compound 0.3 µM) worked out at 1.06.
In the case of NCI-H2009, the relative viability was 0.359 with Dabrafenib + Decitabine (first compound 0.003 µM); 0.38 in the experiment with Dabrafenib + Decitabine (first compound 0.009487 µM); 0.397 in the experiment with Dabrafenib + Decitabine (first compound 0.03 µM); 0.339 with Dabrafenib + Decitabine (first compound 0.09487 µM); 0.358 with Dabrafenib + Decitabine (first compound 0.3 µM); 1.33 with VX-702 + Linsitinib (first compound 0.02 µM). In addition, the relative viability was 1.23 with VX-702 + Linsitinib (first compound 0.2 µM); 1.21 in the experiment with VX-702 + Linsitinib (first compound 0.6325 µM); 1.34 with VX-702 + Linsitinib (first compound 2 µM); 0.412 with Dabrafenib + Phenformin (first compound 0.003 µM); 0.426 in the experiment with Dabrafenib + Phenformin (first compound 0.009487 µM); 0.341 with Dabrafenib + Phenformin (first compound 0.03 µM). For the same cell line, the relative viability with Dabrafenib + Phenformin (first compound 0.09487 µM) was 0.312; with Dabrafenib + Phenformin (first compound 0.3 µM), 0.268; with Dabrafenib + Luminespib (first compound 0.003 µM) it was 1.01; with Dabrafenib + Luminespib (first compound 0.009487 µM), 0.967; in the experiment with Dabrafenib + Luminespib (first compound 0.03 µM), 0.911; in the experiment with Dabrafenib + Luminespib (first compound 0.09487 µM) it was 0.879. Also, the relative viability in the experiment with Dabrafenib + Luminespib (first compound 0.3 µM) amounted to 0.79.

The values above are taken from the supplement of paper PMC10307832.
